Test results published in the METLIN SMRT retention time set (Domingo-Almenara et al. 2019).

Test: gradient 5% acetonitrile 3 min, to 50% in 2 min, to 85% in 15 min, held 3 min, 100 µL/min
Details: column: Zorbax Extend-C18 2.1 x 50 mm; eluents: water / acetonitrile, 0.1% formic acid
Summary of the method: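 Over 3 months, pure standards in mixtures of ~100 molecules were run by HPLC coupled to a quadrupole time-of-flight mass spectrometer in positive and negative ionization mode. The column was a Zorbax Extend-C18 (2.1 × 50 mm, 1.8 μm) at 100 μL/min, eluted with water and acetonitrile each holding 0.1% formic acid, with 40 μL dead and 900 μL dwell volumes. Retention time was determined from adduct peaks chosen by software and checked manually.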

RP-LC retention time [s]	Compound
800	CCCCNC(=O)C1CCN(Cc2cc3ccccc3n2Cc2cccc(C)c2)CC1
939	COc1ccc(-c2nc(C3CC(=O)N(c4ccc(C)cc4)C3)no2)c(OC)c1 (centres undefined)
1020	COc1cc(OC)c(NS(=O)(=O)c2cc(-c3cc(C(F)(F)F)[nH]n3)sc2C)cc1Cl
908	COC(=O)C1=CN(CC(=O)N2CCN(c3ccccc3F)CC2)S(=O)(=O)N=C1C
924	COc1ccc(C(=O)Nc2nc(-c3ccc4c(c3)NC(=O)C(C)O4)c(C)s2)cc1 (centres undefined)
916	CCC(C)CNCC(=O)N1CCc2sccc2C1COc1cccc(C)c1 (centres undefined)
881	COc1ccc(-c2noc(C3CCCN3C(=O)NC3CCCC3)n2)cc1 (centres undefined)
978	Cc1cc(=O)n(CC(=O)Nc2ccc(Br)cc2F)c(N2CCN(c3ccccc3)CC2)n1
699	CCOc1ccccc1CN1CCO[C@@H](COC)[C@@H]1c1ccccc1
744	O=C(Cn1cnc2nc(N3CCCC(C(=O)NC4CC4)C3)sc2c1=O)Nc1ccc2c(c1)CCC2 (centres undefined)
1180	CCN(CC)c1nc2cc(C(=O)OC)ccc2c(=O)n1-c1cc(F)cc(F)c1
917	CS(=O)(=O)CCC(C(=O)N1CCN(c2ccccn2)CC1)N1Cc2ccccc2C1=O (centres undefined)
812	Cc1cc(C(=O)Nc2nnc(-c3cc4ccccc4o3)o2)c(C)o1
723	CCC(C(=O)N1CCN(c2ccc(-c3ccc4c(c3)OCO4)nn2)CC1)c1ccccc1 (centres undefined)
877	Cc1cc(-c2nnc(-c3ccc(F)cc3)o2)c(C)n1CC(=O)N1CCCCC1
978	CCOc1ccc(S(=O)(=O)N2CCC(C(=O)NCc3csc(-c4ccccc4)n3)CC2)cc1
618	O=c1nc(-c2ccccc2)c2ccccc2[nH]1
889	CCc1ccc(OCC(=O)Nc2cnn(C)c(=O)c2N2CCOCC2)cc1
891	Cc1cn2c(S(=O)(=O)N3CCC4(CC3)OCCO4)c(C(C)C)nc2s1
620	CC1CCCCN1CCNC(=O)c1nnc(-c2ccc(S(=O)(=O)N(C)C)cc2)o1 (centres undefined)
895	COc1ccc(OC)c(NC(=O)N2CCC(n3c(C(F)(F)F)nc4cccnc43)CC2)c1
741	O=C(C1=CN(c2ccc(F)cc2)c2ccccc2S1(=O)=O)N1CCOCC1

RP-LC retention time [s]	Compound
784	CC1CCN(C(=O)C2CCN(c3nc4cccnc4s3)CC2)CC1
856	O=C(C1CC1)N1CCc2sc(S(=O)(=O)NCc3ccc(Cl)cc3)cc2C1
912	COc1cccc(-c2ccc(SCC(=O)Nc3ccccc3C(F)(F)F)nn2)c1
729	COc1ccccc1OCc1nc(-c2ccc3ncn(C(C)C)c3c2)no1
1270	CCC(C)NS(=O)(=O)c1ccccc1-c1nc(-c2ccc(C)cc2)no1 (centres undefined)
706	Cc1cc(NCc2ccccn2)n2ncc(-c3ccccc3)c2n1
752	Cc1ccc(C2=NC3(CCN(C(=O)c4ccoc4)CC3)ON2)cc1
606	CSc1cccc(Nc2c(C(=O)N3CCOCC3)cnc3nc(C)ccc23)c1
1060	CCOC(=O)c1ccccc1NC(=O)Cn1c(=O)n(-c2ccc(C)cc2)c(=O)c2c1cc(C)n2C
976	O=C(Nc1cc(Cl)ccc1F)c1cnc(-c2ccccc2)nc1-c1ccncc1
611	O=C(c1cc(-c2ccncc2)n[nH]1)N1CCC(C(=O)N2CCN(c3ccc(F)cc3)CC2)CC1
941	Cc1nc(OCC(=O)NCc2ccc(Cl)cc2)c2c(C)c(C)oc2n1
663	O=C(NC1CCCCC1)N1CCC(OC2CCN(Cc3ccccc3)CC2)CC1
1270	Cc1ccc(-c2noc(Cn3ncn4nc(-c5ccc(C)cc5C)cc4c3=O)n2)cc1
716	Cc1cnc(C(=O)N2CCCCCCN(C)C(=O)[C@@H]3CCC[C@@H]32)cn1
867	O=C(CSc1cc(-n2ccc(C(=O)NC3CC3)n2)ncn1)Nc1ccc(Cl)cc1F
992	CCOC(=O)c1cc(S(=O)(=O)N2CCCC2C(=O)N(Cc2ccco2)C2CCCC2)cn1C (centres undefined)
1110	COc1cccc(/C=C/c2nc(-c3ccc4oc(C)nc4c3)no2)c1
830	Cn1ncc2c(N3CCSCC3)nc(C(=O)N3CCN(c4ccccc4)CC3)nc21
998	COc1ccccc1C1(CNC(=O)C(=O)NCCC2=CCCCC2)CCOCC1
506	Cc1ccsc1CN1CCC(n2c(C)cnc2-c2ccncc2)C1 (centres undefined)
575	COc1nccc(N2CCC(CC(=O)NCc3ccc(OC)c(OC)c3)CC2)n1

RP-LC retention time [s]	Compound
664	COc1ccc(-c2cc3c(=O)n(Cc4noc(CN5CCC(C)CC5)n4)ccn3n2)cc1
779	CC(=O)c1ccc(OC(=O)c2cc3c(C)nn(-c4cccc(F)c4)c3s2)cc1
887	O=C(CC1CCCCN1S(=O)(=O)c1ccccc1)Nc1cc(F)ccc1F (centres undefined)
946	COc1ccc(CC(=O)N2CCc3cn(C)c4cccc(c34)C2)cc1
802	CCc1ccc(NS(=O)(=O)c2cc(-c3c(CC)noc3NC(C)=O)ccc2OC)cc1
689	CCOc1ccc(NC(=O)C2CCCN(c3cnc4nccnc4c3)C2)cc1 (centres undefined)
534	Cc1cc(C)n(CCNS(C)(=O)=O)n1
746	COc1ccc(-c2nnc(-c3cccnc3NCCCN3CCCC3=O)o2)cc1
683	CCn1cnc2ccc(-c3noc(-c4ccoc4)n3)cc21
747	Cc1ccc(N2CCN(C(=O)C3CCCN(c4nccc5sc(C)cc45)C3)CC2)cc1 (centres undefined)
793	CCc1ccc(N2C[C@@]34C=C[C@@H](O3)[C@H](C(=O)OC)[C@@H]4C2=O)cc1
621	CNC(=O)[C@H]1O[C@@H](n2cnc3c(N)ncnc32)C(O)[C@H]1O (some centres undefined)
599	CN1CCN(c2ccc(CNC(=O)CN3CCN(Cc4ccc(F)cc4)C3=O)cc2)CC1
1210	COc1ccccc1N1CCN(c2ncc(C(F)(F)F)cc2Cl)CC1
618	Cn1ncc2c3ccccc3n(CCCC(=O)NCCN3CCCCC3)c2c1=O
1140	CCC(C)(C)NC(=O)c1c(C)oc2ccn(Cc3ccc(F)cc3)c(=O)c12
641	CCN(CC)c1ncc2c(n1)CCC(C(=O)Nc1ccc(N3CCOCC3)cc1)C2 (centres undefined)
744	COc1ccc(C2C(C(=O)NCCC(C)C)CCC(=O)N2c2cc(OC)c(OC)c(OC)c2)cc1 (centres undefined)
943	CCOC(=O)Cc1c(C)nc2c(-c3ccccc3OC)c(C)nn2c1C
783	CCCCS(=O)(=O)N1CC(c2nc(C)no2)C2(CCOCC2)C1 (centres undefined)
771	O=C(Cc1cccc(F)c1)NC(c1ccccc1)c1nnc(N2CCCC2)o1 (centres undefined)
692	COc1nccnc1NC1CCN(C(=O)c2cccnc2)CC1

RP-LC retention time [s]	Compound
759	Cc1ccccc1Nc1c(-c2ccccc2)nc2ncccn12
578	CC(C)c1ccc(CNC(=O)Cc2nnc(-c3ccccn3)o2)cc1
642	Cc1ccc(-c2cn3c(n2)N(C(=O)c2cnccn2)CCC3)cc1
764	Cc1cc(SCC(=O)c2ccc3c(c2)OCO3)nc(C(C)C)n1
635	O=C(NC1CCCCC1)N(Cc1ccccn1)Cc1ccco1
653	O=C(NCc1ccncc1)C1CCCN(c2ccc(Sc3ccc(Br)cc3)nn2)C1 (centres undefined)
557	CCc1nccn1Cc1noc(-c2cccc(OC)c2)n1
676	O=C(c1cn(-c2cc(Nc3ccccc3)ncn2)cn1)N1CCOCC1
786	Cc1ccc(CC(=O)NC(CC(C)C)C(=O)Nc2nc3ccccc3[nH]2)cc1 (centres undefined)
990	Cc1nc(OCC(=O)NC2CCCCC2)c2c(-c3cccc(F)c3)noc2n1
1040	COc1ccc(-c2oc3c(CC=C(C)C)c(O)cc(O)c3c(=O)c2O)cc1
1040	O=C(Nc1ncc(-c2ccccc2)s1)c1ccc(S(=O)(=O)N2CCCCC2)cc1
918	O=C(c1cnccn1)N1CCCCC1c1nc(-c2ccc(F)cc2)no1 (centres undefined)
704	COc1ccccc1OCCNC(=O)Cn1nc2c(cc1=O)CCCC2
1080	COc1cc(OC)cc(-c2nc(-c3ccc4c(c3)oc(=O)n4C(C)C)no2)c1
868	O=C(Nc1cccc(-c2nccnc2N2CCOCC2)c1)Nc1ccc(F)c(Cl)c1
750	O=C(C1=CN(c2ccc3c(c2)OCCO3)c2cc(F)ccc2S1(=O)=O)N1CCOCC1
726	COC(=O)c1ncn2c1C(=O)N(c1ccccc1C)C(C)(C(=O)NCc1ccc(C)cc1)C2 (centres undefined)
1040	CN1C(=O)COc2ccc(-c3csc(NC(=O)c4ccc(Br)cc4)n3)cc21
686	c1ccc(-c2nc(-c3ccc(OC4CNC4)cc3)no2)cc1
896	Fc1ccc(-c2ccc(-c3nn4c(-c5ccco5)nnc4s3)o2)cc1
1140	CCCC(=O)N1CCc2c([nH]c3ccccc23)C1c1ccc(OCC)cc1 (centres undefined)

Compound	RP-LC retention time [s]
O=C(Cn1c(C(=O)c2cccc(F)c2)nc2ccccc21)NCC1CCCO1 (centres undefined)	805
